According to PubChem BioAssay (NCI):
Several values for one entry are separate records, joined by “and”; a condition that tells them apart may be missing. Equal entries are not always repeated.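 A five-concentration, 48-hour dose response in 96-well plates underlies each endpoint, interpolated linearly between surrounding concentrations. Abbreviation: GI50, concentration required for 50% inhibition of growth. TGI is the concentration that stops growth completely.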

How the values were obtained:
Assay in all cases: DTP human tumour cell line panel, 48 h
[1] = test system: NCI-H522 lung
[2] = test system: HOP-92 NSCLC
[3] = test system: HS 578T breast
[4] = test system: BT-549 breast
[5] = test system: PC-3 prostate
[6] = test system: SF-539 CNS
[7] = test system: SNB-75 CNS
[8] = test system: SK-MEL-5 melanoma
[9] = test system: NCI-H23 lung
[10] = test system: U251 CNS

Row | Compound | GI50 [1] [µM] | TGI [1] | GI50 [2] [µM] | TGI [2] | GI50 [3] [µM] | TGI [3] [µM] | GI50 [4] [µM] | TGI [4] [µM] | GI50 [5] [µM] | TGI [5] [µM] | GI50 [6] [µM] | TGI [6] | GI50 [7] | TGI [7] | GI50 [8] | TGI [8] | GI50 [9] [µM] | TGI [9] | TGI [10] | GI50 [10] [µM]
1 | CO[C@H]1C[C@@H]2CC[C@@H](C)[C@@](O)(O2)C(=O)C(=O)N2CCCC[C@H]2C(=O)O[C@H]([C@H](C)C[C@@H]2CC[C@@H](OC(=O)C(C)(CO)CO)[C@H](OC)C2)CC(=O)[C@H](C)/C=C(\C)[C@@H](O)[C@@H](OC)C(=O)[C@H](C)C[C@H](C)\C=C/C=C/C=C/1C | 0.444 | > 10 µM | 0.00141 | > 8.98 µM | 0.00133 | > 10 | 0.00363 | > 10 | 0.00144 | > 10 | 0.00576 | > 10 µM | < 0.001 µM | > 10 µM | 1.35 µM | > 10 µM | 0.0866 | > 10 µM | > 10 µM | 
2 | CCCCN(CCCC)C(=O)[C@H](CC)[C@@H]1CC[C@@H](C)[C@@H]([C@H](C)[C@@H](O)[C@@H](C)C(=O)[C@H](CC)C2O[C@]3(C=C[C@@H](O)[C@]4(CC[C@@](C)([C@H]5CC[C@](O)(CC)[C@H](C)O5)O4)O3)[C@H](C)C[C@@H]2C)O1 (some centres not stated) | 2.08 | 5.44 µM | 1.2 | 4.05 µM | 2.32 | 7.83 | 2.73 | 11.3 | 2.05 | 16.8 | 1.88 | 4.2 µM | 1.78 µM | 26.9 µM | 1.73 µM | 3.15 µM | 2.17 | 5.96 µM | 10.3 µM | 2.78
3 | Cn1cc(/C=C\[N+](=O)[O-])c2ccccc21 | > 100 | > 100 µM | 30.6 | > 100 µM | 19.8 | 50.5 | 34.3 | 78.5 | 35.5 | > 100 | 23.5 | 49.1 µM | 26.2 µM | 75.8 µM | 14.8 µM | 31.6 µM | 74.7 | > 100 µM | > 100 µM | 36.5
4 | O=C1NC(=NCc2ccccc2Cl)S/C1=C\c1ccc2ncccc2c1 | 4.75 | > 17.9 µM | 5.85 | > 22.1 µM | > 9.99 | > 19.4 | 7.86 | > 25 | > 25 | > 25 | 3.59 | > 25 µM | 0.785 µM | > 21.8 µM | 22.4 µM | > 25 µM | 13.5 | > 25 µM | > 25 µM | 6.44
5 | N#CCn1c(=O)c(Oc2ccc(F)cc2F)cc2cnc(NC3CCOCC3)nc21 | 15 | > 25 µM | 15.4 | > 25 µM | > 25 | > 25 | 24.8 | > 25 | > 25 | > 25 | > 25 | > 25 µM | > 25 µM | > 25 µM | > 25 µM | > 25 µM | > 25 | > 25 µM | > 25 µM | > 25
6 | Oc1ccc(Br)cc1C=Nc1cccc(C(F)(F)F)c1 |  | > 100 µM |  | > 100 µM |  | 83.3 |  | 98.3 |  | 33.3 |  | 99.1 µM |  | > 100 µM |  | > 100 µM |  | > 100 µM | 45.1 µM | 
7 | Clc1nccc2c(-c3csc(-c4c[nH]c5ccc(Br)cc45)n3)c[nH]c12 | 2.28 | 6.86 µM | 2.43 | 6.81 µM | 3.7 | 17.8 | 4.7 | 24.4 | 3.86 | 14 | 1.87 | 6.14 µM | 2.37 µM | 10.9 µM | 2.61 µM | 6.42 µM | 2.42 | 8.57 µM | 5.02 µM | 2.05
8 | O=C(Nc1ccc(Oc2ccc3nc(NC(=O)c4ccco4)[nH]c3c2)cc1)Nc1cc(C(F)(F)F)ccc1F | 3.03 | 9.55 µM | 0.234 | 5.74 µM | 0.446 | 3.42 | 2.08 | 6.05 | 1.49 | 8.59 | 0.943 | 5.69 µM | 2.39 µM | 10.2 µM | 1.16 µM | 4.74 µM | 0.852 | 9.08 µM | > 15.3 µM | 3.33
9 | COc1ccc(C(O)c2cc3c(N)c(C(=O)Nc4ccc(Cl)cc4)sc3nc2C)cc1 (configuration not stated) | 4.05 | 38.1 µM | 2.37 | 18.3 µM | 1.82 | 5.3 | 3.42 | 21.6 | 3.27 | 22.2 | 2.4 | 8.08 µM | 1.88 µM | 7.25 µM | 2.74 µM | 10.2 µM | 5.07 | 52.5 µM | 15.8 µM | 2.28
10 | CC(=O)OCC1OC(n2c(=S)n(-c3ccc([N+](=O)[O-])cc3)c(=O)c3ccccc32)C(OC(C)=O)C(OC(C)=O)C1OC(C)=O (configuration not stated) |  | 45.3 µM and 33.7 µM | 21.9 | > 91.6 µM and 47.4 µM |  | 68.5 |  | 26.7 |  | 39.9 |  | 36 µM and 29.7 µM | 7.28 µM and 19 µM | 51 µM and 41.2 µM | 8.06 µM and 25.6 µM | 23.3 µM and > 100 µM |  | > 83.2 µM and 46.4 µM | 42 µM and 37.8 µM | 
11 | c1ccc(-c2oc(-c3ccccc3)c(CN3CCCCC3)c2CN2CCCCC2)cc1 | 2.47 | 11.7 µM | 1.48 | 5.89 µM | 3.14 | 15.8 | 3.35 | 13.3 | 2.34 | 7.73 | 1.68 | 3.47 µM | 4.13 µM | 18.6 µM | 1.59 µM | 3.08 µM | 3.21 | 13 µM | 14.2 µM | 3.55
12 | O=C1NC(=S)S/C1=C\c1cn(-c2ccccc2)nc1-c1ccccc1 | 2.96 | 55.1 µM | 0.623 | 5.34 µM | 6.03 | 43.6 | 5.2 | 23.7 | 5.66 | > 100 | 5.53 | 21.1 µM | 17.8 µM | 51.3 µM | 3.19 µM | 14.2 µM | 2.68 | 15.9 µM | 21.2 µM | 5.54
